One data set deals with Sprague-Dawley rats. The data set can be described thus: Carrageenan-induced paw edema model (anti-inflammatory activity). The format is in vivo. As to conditions: ip, dose 10 mg/kg, four independent experiments. As to the method: Anti-inflammatory activity was studied in Sprague-Dawley rats (3 male and 3 female animals per group) by using the common carrageenan-induced paw edema model. The investigated compounds in 1% starch mucilage were intraperitoneally administered at the corresponding dose to a treated group of rodents 30 min before the injection of 0.1 mL of freshly prepared 1% carrageenan (λ-carrageenan, type IV; Sigma Aldrich, an affiliate of Merck KGaA, Darmstadt, Germany) solution in the right hind paw plantar surface. The negative control group was treated with 1% starch mucilage solution only. Diclofenac sodium (10 mg/kg in 1% starch mucilage solution) was used as a reference drug. Paw volumes were measured oncometrically with water plethysmometer (TSE Volume Meter, Bad Homburg, Germany) before carrageenan administration (“zero time”) and at 1st, 3rd, 5th and 24th h after its injection. An anti-inflammatory activity of the sample at a certain time point was calculated in two steps. First, the percentage of an edema increment (i.e., relative volume change for the inflamed paw vs. “zero time” value) both in the negative control group (Pc) and in the treated group (Ptr) were calculated for this time point for each animal. The difference between treated and control group was considered significant at p < 0.05. Then, for such cases, swelling inhibition was calculated according to the formula: 100% (Pc − Ptr)/Pc and considered as a measure of anti-inflammatory activity of the sample.
For orientation: In the carrageenan paw model, swelling and tenderness develop within hours.

A further data set relates to Sprague-Dawley (SD) rats. The data set can be described thus: Hot plate test (analgesic activity). The format is in vivo. As to conditions: Rattus norvegicus, hot plate test, rats, ip, dose 10 mg/kg, eight independent experiments. A digest of the protocol: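 Test compounds were given i.p. as suspensions in 1% starch mucilage to SD rats (3 male, 3 female per group), vehicle as negative control. At 1 and 2 h post-dose, latency to nociceptive response (jumping, hind paw licking/shaking) on a 50 °C plate was recorded, 30 s cutoff.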

Data set [1] can be described thus: Oxygen radical absorbance capacity (ORAC-FL) assay. As to conditions: n.a. = inactive; i.t.s. = interferes with test system. A digest of the protocol: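 Fluorescein oxidative degradation by the peroxyl radical generator AAPH is monitored in the presence of test compound, a HAT-based read-out. Activity is expressed relative to Trolox as reference antioxidant.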

The nature of data set [2]: ABTS radical cation scavenging activity assay. Further details: key to ABTS•+-scavenging activity, TEAC (trolox equivalent antioxidant capacity): TEAC = ratio of compound slope to Trolox slope vs ABTS absorbance. As to conditions: mean ± SEM; for ABTS•+-scavenging activity, TEAC (trolox equivalent antioxidant capacity): n.a. = inactive. A digest of the protocol: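 ABTS•+ (from 7 mM ABTS plus 2.45 mM persulfate) mixed with compound, 5 × 10^–7–4 × 10^–4 M, 1 h at 30 °C; absorbance decrease read at 734 nm. TEAC from slope ratio versus Trolox; IC50 as 50% radical reduction for compounds exceeding 60% reduction at 100 µM.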

A short description of data set [3]: Ferric reducing antioxidant power (FRAP) assay. Conditions: 20 μM; n.a. = inactive. The source says: The FRAP assay measures the ability of anti-oxidants to reduce the ferric 2,4,6-tripyridyl-s-triazine complex [Fe(TPTZ)2]^3+ to the intensely blue ferrous colored complex [Fe(TPTZ)2]^2+ with an absorption maximum at λ = 593 nm. The reducing ability of a compound is an indicator of its potential anti-oxidant activity. 2,4,6-Tris(pyridin-2-yl)-1,3,5-triazine (TPTZ), FeCl3·6H2O, Trolox and DMSO were obtained from Sigma-Aldrich Chemical Co (St. Louis, MO, USA).
The ferric reducing ability of the compounds was determined by the method in microplate adapted version described in [116]. The FRAP reagent was prepared by mixing acetate buffer (0.3 M, pH 3.6), TPTZ (10 mM in 40 mM HCl) and FeCl3·6H2O (20 mM in distilled water) in a ratio of 10:1:1 immediately before use. Compounds were dissolved in DMSO and tested in the concentration 20 μM. The solvent content in the reaction mixture was 4% (v/v). The test compounds (10 μL of 0.5 mM solution) were added to the FRAP reagent solution (240 μL) and mixed thoroughly. The reaction was carried out at 37 °C in the dark; the incubation time was 1 h. The absorbance at 600 nm was monitored spectrophotometrically by a FLUOStar OPTIMA microplate reader (BMG Labtech, Ortenberg, Germany) at 37 °C. Trolox was used as a reference compound. Values were obtained from four replicates of each sample in three independent experiments.
The ferric reducing ability of compounds was expressed as TE units (antioxidant activity in Trolox equivalent), the values calculated as the ratio of the concentrations of Trolox and the test compound resulting in the same effect. The calculations were carried out using Origin 6.1 for Windows. Results were presented as mean ± SEM, calculated using GraphPad Prism version 6.05 for Windows, GraphPad Software.

The target in the next data set is T1, ratTRPV1 (rTRPV1) (Rattus norvegicus, UniProt O35433).
T1 construct: expressed in transfected cells
Briefly: TRPV1 calcium imaging in CHO cells (acid / 2APB activation). The format is cell-based. As to conditions: 50 μM. As to the method: Testing for receptors ratTRPA1 (rTRPA1) and ratTRPV1 (rTRPV1), stably expressed in CHO cells, was carried out using the calcium imaging method as described in [123, 124]. Fluorescence was performed using NOVOstar (BMG LABTECH, Ortenberg, Germany). The tested substances in 26% DMSO solution or 26% DMSO solution alone (negative control) (5 μL) were added to the cells loaded with the cytoplasmic calcium indicator Fluo-4AM using Fluo-4 Direct™ Calcium Assay Kit (Thermo Fisher Scientific Inc., Waltham, MA, USA) (60 μL) and incubated 5–10 min. Final DMSO concentration was 2%. Changes in cell fluorescence (λex = 485 nm, λem = 520 nm) were monitored at 25 °C before and after the addition of relevant agonist. The AITC final concentration 160 μM was used for rTRPA1 activation. For rTRPV1 activation we used (1) acid-salt buffer pH4.01 (diluted 2 times Buffer solution pH 4.01 (Mettler Toledo, Greifensee, Switzerland) containing 150 mM NaCl), (2) 2APB in 10 mM HEPES/HBSS, pH 7.4—final concentration 160 μM, or (3) 2APB in acid-salt buffer pH 4.01—final concentration 80 μM. Nonspecificity was tested on wild type CHO.
To achieve the required level of acidification, the cell medium with fluorescent dye (pH 7.4) was pre-titrated to determine the required volume of acid-salt buffer until pH 6.2 was reached. The pH level was also monitored after the test as an average of 10–12 wells. […]

Like-named read-outs stand apart in the source and are kept apart here.

T1 sequence (O35433 whole entry): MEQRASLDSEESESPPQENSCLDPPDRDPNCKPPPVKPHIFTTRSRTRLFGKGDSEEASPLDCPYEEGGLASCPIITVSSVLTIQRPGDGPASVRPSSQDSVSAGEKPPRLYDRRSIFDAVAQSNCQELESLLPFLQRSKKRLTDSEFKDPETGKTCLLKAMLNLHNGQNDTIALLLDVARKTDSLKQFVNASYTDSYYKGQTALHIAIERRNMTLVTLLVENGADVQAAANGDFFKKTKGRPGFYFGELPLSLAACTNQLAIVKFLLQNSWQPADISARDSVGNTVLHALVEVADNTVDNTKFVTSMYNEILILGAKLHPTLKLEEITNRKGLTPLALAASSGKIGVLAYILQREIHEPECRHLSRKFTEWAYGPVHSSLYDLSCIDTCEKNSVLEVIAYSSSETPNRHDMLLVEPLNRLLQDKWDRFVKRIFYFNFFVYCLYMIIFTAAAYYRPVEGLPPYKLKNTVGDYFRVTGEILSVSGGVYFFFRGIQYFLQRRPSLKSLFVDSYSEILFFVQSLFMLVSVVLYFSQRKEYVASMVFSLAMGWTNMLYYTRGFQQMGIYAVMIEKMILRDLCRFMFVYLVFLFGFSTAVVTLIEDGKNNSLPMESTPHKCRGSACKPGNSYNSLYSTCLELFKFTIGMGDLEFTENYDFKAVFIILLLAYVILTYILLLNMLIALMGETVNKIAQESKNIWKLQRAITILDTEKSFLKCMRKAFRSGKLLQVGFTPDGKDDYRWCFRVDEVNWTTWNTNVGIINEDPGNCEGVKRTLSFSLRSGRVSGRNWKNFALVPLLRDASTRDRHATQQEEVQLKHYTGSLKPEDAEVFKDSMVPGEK

What is called melting point is the temperature, or range, at which the solid turns liquid. As for `Cc1ccc(N/N=C2\C(=O)N(c3ccc(C)cc3)N=C2C(F)(F)C(F)(F)F)cc1`, the melting point lay within 165 to 166 °C.
Turning to `O=C(O)Cc1ccccc1Nc1c(Cl)cccc1Cl` [Diclofenac, reference compound], in the data set with Sprague-Dawley rats, the “Inhibition of Paw Edema Development Comparing to Control, after 1 h” value was 35.6 ± 5.8 ^1%; the “Inhibition of Paw Edema Development Comparing to Control, after 3 h” value is 54.3 ± 12.1 ^1%; the “Inhibition of Paw Edema Development Comparing to Control, after 5 h” value is 46.2 ± 13.2 ^1%. Further, the change in vivo at 10 mg/kg in the data set with Sprague-Dawley (SD) rats (1 h, read-out: Latent Period Prolongation, % 1 h) came out at 63.5 ± 18.2%. In the data set on Sprague-Dawley (SD) rats (2 h, read-out: Latent Period Prolongation, % 2 h), the change in vivo at 10 mg/kg came out at 70 ± 20.8%.
One may read the IC50 as the concentration at which inhibition is half-maximal. On to `CC1=NN(c2ccccc2)C(=O)C1` [Edaravone, reference compound], for which the “ORAC-FL (TE, antioxidant activity in Trolox equivalents)” value in data set [1] is 3.71 ± 0.06. Further, in data set [2], the concentration for half-maximal inhibition (IC50) is 21.4 ± 1.8 µM and the “ABTS•+-scavenging activity, TEAC (trolox equivalent antioxidant capacity)” value was found to be 0.96 ± 0.04. Further, the “FRAP (TE, antioxidant activity in Trolox equivalents)” value in data set [3] amounted to 0.80 ± 0.01.
Turning to `Cc1c(C)c2c(c(C)c1O)CCC(C)(C(=O)O)O2` (stereo not drawn) [Trolox, 6-hydroxy-2,5,7,8-tetramethychroman-2-carboxylic acid, reference compound], the “ORAC-FL (TE, antioxidant activity in Trolox equivalents)” value in data set [1] came to 1.0. In data set [2], the IC50 turned out to be 19.7 ± 0.8 µM and the “ABTS•+-scavenging activity, TEAC (trolox equivalent antioxidant capacity)” value stood at 1.0. The “FRAP (TE, antioxidant activity in Trolox equivalents)” value in data set [3] is on record as 1.0.
Take `Oc1cc2c(cc1O)CN(C(=S)NCCc1ccc(Cl)cc1)CCC2` [capsazepine]: the “inhibition of the increase in intracellular Ca2+ (TRPV1 activation by acidic solution or 160 μM 2APB)” value at ratTRPV1 (rTRPV1) is listed as “effectively inhibited”.

The values are drawn from publication PMC9821843, “Powerful Potential of Polyfluoroalkyl-Containing 4-Arylhydrazinylidenepyrazol-3-ones for Pharmaceuticals” (Molecules, 2022).
